What follows are compounds tested against Factor D (Homo sapiens (Human), UniProt P00746) (assay: biochemical). Settings: read-out: IC50.
Sequence of Factor D (P00746 26-253): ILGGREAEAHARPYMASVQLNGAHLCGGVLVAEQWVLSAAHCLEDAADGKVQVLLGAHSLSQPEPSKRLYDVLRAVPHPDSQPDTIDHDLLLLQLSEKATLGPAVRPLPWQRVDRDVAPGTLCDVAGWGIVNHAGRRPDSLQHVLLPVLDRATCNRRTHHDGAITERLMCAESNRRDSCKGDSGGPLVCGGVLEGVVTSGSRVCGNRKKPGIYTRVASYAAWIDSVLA
Assay type: biochemical
For `CCOC(=O)c1cc(Br)c(F)c(NC(=O)[C@@H]2C[C@@H](F)CN2C(=O)Nc2cn(C(N)=O)c3ccccc23)c1` [Example 333, 3-Bromo-5-{[(2S,4R)-1-(1-carbamoyl-1H-indol-3-ylcarbamoyl)-4-fluoro-pyrrolidine-2-carbonyl]-amino}-4-fluoro-benzoic acid ethyl ester], the IC50 was 47 nM. `C=CCOc1ccc2c(c1)c(NC(=O)N1CCC[C@H]1C(=O)Nc1cccc(OC(F)(F)F)c1)cn2C(N)=O` [Example 335, (S)-Pyrrolidine-1,2-dicarboxylic acid 1-[(5-allyloxy-1-carbamoyl-1H-indol-3-yl)-amide] 2-[(3-trifluoromethoxy-phenyl)-amide]] gave an IC50 of 550 nM. `C[C@@H]1CC[C@@H](C(=O)Nc2cccc(OC(F)(F)F)c2)N1C(=O)Nc1cn(C(N)=O)c2ccccc12` [Example 336, (2S,5R)-5-Methyl-pyrrolidine-1,2-dicarboxylic acid 1-[(1-carbamoyl-1H-indol-3-yl)-amide]2-[(3-trifluoromethoxy-phenyl)-amide]] gave an IC50 of 750 nM. Work on `C[C@H]1CC[C@@H](C(=O)Nc2cccc(OC(F)(F)F)c2)N1C(=O)Nc1cn(C(N)=O)c2ccccc12` [Example 337, (2S,5S)-5-Methyl-pyrrolidine-1,2-dicarboxylic acid 1-[(1-carbamoyl-1H-indol-3-yl)-amide]2-[(3-trifluoromethoxy-phenyl)-amide]] yielded an IC50 of 250 nM. With `CC[C@@H]1CC[C@@H](C(=O)Nc2cccc(OC(F)(F)F)c2)N1C(=O)Nc1cn(C(N)=O)c2ccccc12` [Example 338, (2S,5R)-5-Ethyl-pyrrolidine-1,2-dicarboxylic acid 1-[(1-carbamoyl-1H-indol-3-yl)-amide]2-[(3-trifluoromthoxy-phenyl)-amide]] the IC50 was 18900 nM. Compound `NC(=O)n1cc(NC(=O)N2C[C@H](F)C[C@H]2C(=O)Nc2cc(Cl)cc(C(=O)O)c2)c2ccccc21` [Example 339, 3-Chloro-5-{[(2S,4R)-1-(1-carbamoyl-1H-indol-3-ylcarbamoyl)-4-fluoro-pyrrolidine-2-carbonyl]-amino}-benzoic acid] has an IC50 of 65 nM. In the case of `NC(=O)n1cc(NC(=O)N2CCS[C@H]2C(=O)Nc2cc(Br)cc(C(=O)O)c2)c2ccccc21` [Example 341, 3-Bromo-5-{[(S)-3-(1-carbamoyl-1H-indol-3-ylcarbamoyl)-thiazolidine-2-carbonyl]-amino}-benzoic acid], the IC50 is reported as 95 nM. With `COc1ccc2c(c1)c(NC(=O)N1[C@@H]3C[C@@H]3C[C@H]1C(=O)Nc1cc(Br)cc(C(=O)O)c1)cn2C(N)=O` [Example 342, 3-Bromo-5-{[(1R,3S,5R)-2-(1-carbamoyl-5-methoxy-1H-indol-3-ylcarbamoyl)-2-aza-bicyclo[3.1.0]hexane-3-carbonyl]-amino}-benzoic acid] the IC50 was 55 nM. `NC(=O)n1cc(NC(=O)N2C[C@H](F)C[C@H]2C(=O)Nc2cc(C(=O)O)cc(Br)c2F)c2ccccc21` [Example 343, 3-Bromo-5-{[(2S,4R)-1-(1-carbamoyl-1H-indol-3-ylcarbamoyl)-4-fluoro-pyrrolidine-2-carbonyl]-amino}-4-fluoro-benzoic acid] gave an IC50 of 30 nM. For `NC(=O)n1cc(NC(=O)N2[C@@H]3C[C@@H]3C[C@H]2C(=O)Nc2cc(Br)cc(-c3nnn[nH]3)c2)c2ccccc21` [Example 344, (1R,3S,5R)-2-Aza-bicyclo[3.1.0]hexane-2,3-dicarboxylic acid 3-{[3-bromo-5-(1H-tetrazol-5-yl)-phenyl]-amide}2-[(1-carbamoyl-1H-indol-3-yl)-amide]], the IC50 was 68 nM. In the case of `CC(C)(C)n1nnnc1-c1cc(Br)cc(NC(=O)[C@@H]2C[C@H]3C[C@H]3N2C(=O)Nc2cn(C(N)=O)c3ccccc23)c1` [Example 345, (1R,3S,5R)-2-Aza-bicyclo[3.1.0]hexane-2,3-dicarboxylic acid 3-{[3-bromo-5-(1-tert-butyl-1H-tetrazol-5-yl)-phenyl]-amide}2-[(1-carbamoyl-1H-indol-3-yl)-amide]], the IC50 is reported as 800 nM. For `NC(=O)n1cc(NC(=O)N2C[C@H](F)C[C@H]2C(=O)NCc2cc(-c3nnn[nH]3)cc(Cl)c2F)c2ccccc21` [Example 346, (2S,4R)-4-Fluoro-pyrrolidine-1,2-dicarboxylic acid 1-[(1-carbamoyl-1H-indol-3-yl)-amide]2-[3-chloro-2-fluoro-5-(1H-tetrazol-5-yl)-benzylamide]], the IC50 was 69 nM. For `CC(C)(C)n1nnnc1-c1cc(Cl)c(F)c(CNC(=O)[C@@H]2C[C@@H](F)CN2C(=O)Nc2cn(C(N)=O)c3ccccc23)c1` [Example 347, (2S,4R)-4-Fluoro-pyrrolidine-1,2-dicarboxylic acid 2-[5-(1-tert-butyl-1H-tetrazol-5-yl)-3-chloro-2-fluoro-benzylamide]1-[(1-carbamoyl-1H-indol-3-yl)-amide]], the IC50 was 677 nM. `NC(=O)n1cc(NC(=O)N2CC[C@H](F)[C@H]2C(=O)NCc2cccc(Cl)c2)c2ccccc21` [Example 348, 2R,3S)-3-Fluoro-pyrrolidine-1,2-dicarboxylic acid 1-[(1-carbamoyl-1H-indol-3-yl)-amide]2-(3-chloro-benzylamide] gave an IC50 of 200 nM. `NC(=O)n1cc(NC(=O)N2CC[C@@H](F)[C@H]2C(=O)NCc2cccc(Cl)c2)c2ccccc21` [Example 349, 2R,3R)-3-Fluoro-pyrrolidine-1,2-dicarboxylic acid 1-[(1-carbamoyl-1H-indol-3-yl)-amide]2-(3-chloro-benzylamide] was tested, and the IC50 was 150 nM. For `C[C@@H]1CC[C@@H](C(=O)NCc2cccc(Cl)c2F)N1C(=O)Nc1cn(C(N)=O)c2ccccc12` [Example 350, 2S,5R)-5-Methyl-pyrrolidine-1,2-dicarboxylic acid 1-[(1-carbamoyl-1H-indol-3-yl)-amide]2-(3-chloro-2-fluoro-benzylamide], the IC50 was 85 nM. `CC[C@@H]1CC[C@@H](C(=O)NCc2cccc(Cl)c2F)N1C(=O)Nc1cn(C(N)=O)c2ccccc12` [Example 351, 2S,5R)-5-Ethyl-pyrrolidine-1,2-dicarboxylic acid 1-[(1-carbamoyl-1H-indol-3-yl)-amide]2-(3-chloro-2-fluoro-benzylamide] showed an IC50 of 600 nM. Compound `NC(=O)n1cc(NC(=O)N2C[C@H](CO)C[C@H]2C(=O)NCc2cccc(Cl)c2F)c2ccccc21` [Example 352, 2S,4R)-4-Hydroxymethyl-pyrrolidine-1,2-dicarboxylic acid 1-[(1-carbamoyl-1H-indol-3-yl)-amide]2-(3-chloro-2-fluoro-benzylamide] has an IC50 of 200 nM. With `COC(=O)[C@H]1C[C@@H](C(=O)NCc2c(F)ccc(Cl)c2F)N(C(=O)Nc2cn(C(N)=O)c3ccccc23)C1` [Example 353, (3S,5S)-1-(1-carbamoyl-1H-indol-3-ylcarbamoyl)-5-(3-chloro-2,6-difluoro-benzylcarbamoyl)-pyrrolidine-3-carboxylic acid methyl ester] the IC50 was 252 nM. For `NC(=O)n1cc(NC(=O)N2C[C@@H](C(=O)O)C[C@H]2C(=O)NCc2c(F)ccc(Cl)c2F)c2ccccc21` [Example 354, (3S,5S)-1-(1-Carbamoyl-1H-indol-3-ylcarbamoyl)-5-(3-chloro-2,6-difluoro-benzylcarbamoyl)-pyrrolidine-3-carboxylic acid], the IC50 was 1660 nM. `NC(=O)n1cc(NC(=O)N2C[C@@H](CO)C[C@H]2C(=O)NCc2cccc(Br)c2F)c2ccccc21` [Example 355, (2S,4S)-4-Hydroxymethyl-pyrrolidine-1,2-dicarboxylic acid 2-(3-bromo-2-fluoro-benzylamide) 1-[(1-carbamoyl-1H-indol-3-yl)-amide]] was tested, and the IC50 was 104 nM.

From patent US9085555B2, “Complement pathway modulators and uses thereof” (priority 2011, dated 2015)
